Experimental data: US8163771B2, “11 β-HSD1 modulators” (Exelixis, Inc., priority 2008, dated 2012)

target: T1, recombinant human 11 β-HSD1 (Homo sapiens, UniProt P28845); test: 11 β-HSD1 SPA Assay (Scintillation Proximity Assay); assay type: biochemical
T1 construct: made in house; host or cells: E. coli
How it was run: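 E. coli-expressed human enzyme (30-100 nM) with tritiated cortisone 40 nM and NADPH 1 mM in HEPES buffer pH7.4, 2 hours at room temperature. Stopped with protein A SPA beads carrying anti-cortisol antibody and glycyrrhetinic acid; counted after overnight incubation. IC50 from percent inhibition between no-enzyme and no-compound signals.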

T1 sequence (P28845 whole entry): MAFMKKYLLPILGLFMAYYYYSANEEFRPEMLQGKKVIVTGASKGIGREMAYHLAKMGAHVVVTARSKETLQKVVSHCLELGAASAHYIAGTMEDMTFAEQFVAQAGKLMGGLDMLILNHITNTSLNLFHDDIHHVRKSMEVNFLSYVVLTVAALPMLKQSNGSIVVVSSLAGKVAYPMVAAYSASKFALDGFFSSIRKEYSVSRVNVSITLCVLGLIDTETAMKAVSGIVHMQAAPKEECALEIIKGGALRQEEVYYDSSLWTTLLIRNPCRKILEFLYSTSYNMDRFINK

SMILES	IC50
CC(C)(Oc1ccc(Cl)cc1C(F)F)C(=O)N[C@H]1C[C@H]2CC[C@@H](C1)N2c1ccc(C(=O)NC2(CO)CC2)cn1 [Example 403, 6-(3-endo-(2-(4-chloro-2-(difluoromethyl)phenoxy)-2-methylpropanamido)-8-azabicyclo[3.2.1]octan-8-yl)-N-(1-(hydroxymethyl)cyclopropyl) nicotinamide]	< 200 nM
CC(C)(Oc1ccc(Cl)cc1Cl)C(=O)N[C@H]1C[C@H]2CC[C@@H](C1)N2c1ccc(NC(=O)NCC(F)(F)F)cn1 [Example 134, 2-[(2,4-dichlorophenyl)oxy]-2-methyl-N-{8-[5-({[(2,2,2-trifluoroethyl)amino]carbonyl}amino)pyridin-2-yl]-8-azabicyclo[3.2.1]oct-3-endo-yl}propanamide]	< 200 nM
CS(=O)(=O)c1cccc(C2(C(=O)N[C@H]3C[C@H]4CC[C@@H](C3)N4c3ccc(C(N)=O)cn3)CC2)c1 [Example 311, 6-{3-endo-[({1-[3-(methylsulfonyl)phenyl]cyclo-propyl}carbonyl)amino]-8-azabicyclo[3.2.1]oct-8-yl}pyridine-3-carboxamide]	< 200 nM
CC(C)(Oc1cc(Cl)c(Cl)cc1Cl)C(=O)N[C@H]1C[C@H]2CC[C@@H](C1)N2c1ccc(S(C)(=O)=O)cc1 [Example 199, 2-methyl-N-{8-[4-(methylsulfonyl)phenyl]-8-azabicyclo[3.2.1]oct-3-endo-yl}-2-[(2,4,5-trichlorophenyl)oxy]propanamide]	< 200 nM
CC(C)(Oc1ccc(Cl)cc1Cl)C(=O)N[C@H]1C[C@H]2CC[C@@H](C1)N2c1ccc(NS(C)(=O)=O)cn1 [Example 101, 2-[(2,4-dichlorophenyl)oxy]-2-methyl-N-(8-{5-[(methylsulfonyl)amino]pyridin-2-yl}-8-azabicyclo[3.2.1]oct-3-endo-yl)propanamide]	< 200 nM
CC(C)(Oc1cc(Cl)c(F)cc1Cl)C(=O)N[C@H]1C[C@H]2CC[C@@H](C1)N2c1ccc(S(C)(=O)=O)cn1 [Example 154, 2-[(2,5-dichloro-4-fluorophenyl)oxy]-2-methyl-N-{8-[5-(methylsulfonyl)pyridin-2-yl]-8-azabicyclo[3.2.1]oct-3-endo-yl}propanamide]	< 200 nM
CS(=O)(=O)c1cccc(C2(C(=O)N[C@H]3C[C@H]4CC[C@@H](C3)N4c3ccc(C(=O)NCC(F)(F)F)cn3)CC2)c1 [Example 289, 6-{3-endo-[({1-[3-(methylsulfonyl)phenyl]cyclo-propyl}carbonyl)amino]-8-azabicyclo[3.2.1]oct-8-yl}-N-(2,2,2-trifluoroethyl)pyridine-3-carboxamide]	< 2000 nM
CC(C)(Oc1ccc(Cl)cc1Cl)C(=O)N[C@H]1C[C@H]2CC[C@@H](C1)N2c1ccc(NC(=O)NCC(F)(F)F)cc1Cl [Example 136, N-{8-[2-chloro-4-({[(2,2,2-trifluoroethyl)amino]carbonyl}amino)phenyl]-8-azabicyclo[3.2.1]oct-3-endo-yl}-2-[(2,4-dichlorophenyl)oxy]-2-methylpropanamide]	< 2000 nM
O=C(NC1CC1)c1ccc(N2C3CCC2CC(NC(=O)C2(c4ccc(Cl)cc4)CCCC2)C3)nc1 (centres unmarked) [Example 7, 6-[3-({[1-(4-chlorophenyl)cyclopentyl]carbonyl}amino)-8-azabicyclo[3.2.1]oct-8-yl]-N-cyclopropylpyridine-3-carboxamide]	< 200 nM
CC(C)(Oc1ccc(Cl)cc1Cl)C(=O)N[C@H]1C[C@H]2CC[C@@H](C1)N2c1ccc(C(N)=O)cn1 [Example 56, 6-[3-endo-({2-[(2,4-dichlorophenyl)oxy]-2-methylpropanoyl}amino)-8-azabicyclo[3.2.1]oct-8-yl]pyridine-3-carboxamide]	< 200 nM
CC(C)(Oc1ccc(Cl)cc1F)C(=O)N[C@H]1C[C@H]2CC[C@@H](C1)N2c1ccc(S(C)(=O)=O)cn1 [Example 229, 2-[(4-chloro-2-fluorophenyl)oxy]-2-methyl-N-{8-[5-(methylsulfonyl)pyridin-2-yl]-8-azabicyclo[3.2.1]oct-3-endo-yl}propanamide]	< 200 nM
CC(Oc1ccc(Cl)cc1)C(=O)N[C@H]1C[C@H]2CC[C@@H](C1)N2c1ccc(C(=O)NC2CC2)cn1 (stereo partly drawn) [Example 49, 6-[3-endo-({2-[(4-chlorophenyl)oxy]propanoyl}amino)-8-azabicyclo[3.2.1]oct-8-yl]-N-cyclopropylpyridine-3-carboxamide]	< 2000 nM
COCCOc1cc(OC(C)(C)C(=O)N[C@H]2C[C@H]3CC[C@@H](C2)N3c2ccc(C(=O)NCC(F)(F)F)cn2)c(Cl)cc1Cl [Example 382, 6-[3-endo-({2-[2,4-dichloro-5-(2-methoxyethoxy)phenoxy]-2-methylpropanoyl}amino)-8-azabicyclo[3.2.1]oct-8-yl]-N-(2,2,2-trifluoroethyl)pyridine-3-carboxamide]	< 200 nM
C[C@H](NC(=O)c1ccc(N2C3CCC2CC(NC(=O)C(C)(C)Oc2ncc(Cl)cc2F)C3)nc1)C(F)(F)F (stereo partly drawn) [Example 419, 6-[3-endo-({2-[(5-chloro-3-fluoropyridin-2-yl)oxy]-2-methylpropanoyl}amino)-8-azabicyclo[3.2.1]oct-8-yl]-N-[(2S)-1,1,1-trifluoropropan-2-yl]pyridine-3-carboxamide]	< 2000 nM
CC(C)(Oc1ccc(F)c(Cl)c1Cl)C(=O)N[C@H]1C[C@H]2CC[C@@H](C1)N2c1ccc(C(=O)NCC(F)F)cn1 [Example 441, 6-(3-endo-{[2-(2,3-dichloro-4-fluorophenoxy)-2-methylpropanoyl]amino}-8-azabicyclo[3.2.1]oct-8-yl)-N-(2,2-difluoroethyl)pyridine-3-carboxamide]	< 200 nM
CC(C)(Oc1ncc(Cl)cc1C(F)(F)F)C(=O)N[C@H]1C[C@H]2CC[C@@H](C1)N2c1ccc(S(C)(=O)=O)cn1 [Example 314, 2-{[5-chloro-3-(trifluoromethyl)pyridin-2-yl]oxy}-2-methyl-N-{8-[5-(methylsulfonyl)pyridin-2-yl]-8-azabicyclo[3.2.1]oct-3-endo-yl}propanamide]	< 200 nM
CC(C)(Oc1ccc(Cl)cc1C(F)F)C(=O)NC1CC2CCC(C1)N2c1ccc(C(=O)NCC(O)C(F)(F)F)cn1 (stereo not drawn) [Example 449, 6-[3-endo-({2-[4-chloro-2-(difluoromethyl)phenoxy]-2-methylpropanoyl}amino)-8-azabicyclo[3.2.1]oct-8-yl]-N-(3,3,3-trifluoro-2-hydroxypropyl)pyridine-3-carboxamide]	< 200 nM
CC(C)(Oc1ncc(C(F)(F)F)cc1Cl)C(=O)N[C@H]1C[C@H]2CC[C@@H](C1)N2c1ccc(S(C)(=O)=O)cn1 [Example 248, 2-{[3-chloro-5-(trifluoromethyl)pyridin-2-yl]oxy}-2-methyl-N-{8-[5-(methylsulfonyl)pyridin-2-yl]-8-azabicyclo[3.2.1]oct-3-endo-yl}propanamide]	< 2000 nM
CC(C)(Oc1ncc(Cl)cc1Cl)C(=O)N[C@H]1C[C@H]2CC[C@@H](C1)N2c1ccc(C(=O)NCC(F)(F)F)cn1 [Example 107, 6-[3-endo-({2-[(3,5-dichloropyridin-2-yl)oxy]-2-methylpropanoyl}amino)-8-azabicyclo[3.2.1]oct-8-yl]-N-(2,2,2-trifluoroethyl)pyridine-3-carboxamide]	< 200 nM
CC(C)(Oc1ccc(F)cc1F)C(=O)N[C@H]1C[C@H]2CC[C@@H](C1)N2c1ccc(S(C)(=O)=O)cc1 [Example 224, 2-[(2,4-difluorophenyl)oxy]-2-methyl-N-{8-[4-(methylsulfonyl)phenyl]-8-azabicyclo[3.2.1]oct-3-endo-yl}propanamide]	< 200 nM
